What all share (assay): growth of human tumour cells (NCI), 48 h
The test system of test [1] is SNB-75 CNS.
Test [2] has as its system A498 renal.
Test [3] deals with SK-MEL-28 melanoma.
The subject of test [4] is KM12 colon.
Test [5] relates to 786-0 renal.
The subject of test [6] is SK-MEL-5 melanoma.
Test [7] concerns RPMI-8226 leukemia.
For test [8], the system named is M14 melanoma.
Test [9] relates to K-562 leukemia.
The test system of test [10] is ACHN renal.

SMILES strings stand for the structures.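 Exposure lasted 48 hours, with cells grown in 96-well plates and compounds tested at five concentrations. Abbreviation: GI50, concentration required for 50% inhibition of growth. TGI marks complete inhibition of growth.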

Regarding `COc1cc(-c2cc(C(=O)N3CCN(C(=O)c4ccccc4NCc4ccco4)CC3)nc3cc(-c4ccccc4)nn23)cc(OC)c1OC`, the GI50 in [1] is 2.07 µM; in test [2] it was 3.02 µM; in [3] it was 16.6 µM; in test [4] it was 0.878 µM; in test [5], 4.55 µM; in test [6] it was 1.46 µM. Moreover, the GI50 in [7] is 3.61 µM; in test [8], 2.9 µM; in test [9], 1.95 µM; in test [10], 6.97 µM. For the same compound, the TGI in test [1] is 19.3 µM; in test [2], greater than 28.4 µM; in test [3], greater than 100 µM; in test [4], greater than 100 µM; in [5], greater than 100 µM; in test [6], greater than 100 µM. Moreover, the TGI in test [7] was greater than 100 µM; in test [8], greater than 75.4 µM; in [9], greater than 100 µM; in test [10], greater than 100 µM.

For the compound `Cc1ccc2c(c1)NC(c1ccc(C(=O)O)cc1)c1cccn1-2` (stereo not given), the TGI in test [1] is 39.6 µM; in [2] it was 64.9 µM; in [3], greater than 100 µM; in test [4], greater than 100 µM; in test [5] it was 43.1 µM; in [6], greater than 100 µM. Also, the TGI was greater than 100 µM in test [7], greater than 100 µM in test [8], greater than 100 µM in test [9] and 42.6 µM in test [10].

As for `COc1ccccc1C(=O)/C=C/c1cc2cccc(OC)c2[nH]c1=O`, the GI50 was 0.0191 µM in [1]; 0.0158 µM in test [2]; 1.08 µM in test [3]; less than 0.0167 µM in test [4]; 0.0401 µM in [5]; 0.0374 µM in test [6]. The GI50 in test [7] was less than 0.0181 µM; in [8] it was less than 0.0131 µM; in test [9], less than 0.0125 µM; in [10], 0.0557 µM. Further, the TGI in test [1] was 3.6 µM; in test [2], 0.0788 µM; in [3], 6.63 µM; in test [4] it was 1.13 µM; in test [5], 1.38 µM; in test [6], 0.843 µM. Moreover, the TGI in test [7] was 1.42 µM; in test [8] it was 0.3 µM; in test [9], greater than 89.1 µM; in test [10], 2.15 µM.

Regarding `O=C1/C(=C\c2ccc(Cl)cc2)CN(C(=S)Nc2ccccc2)C/C1=C\c1ccc(Cl)cc1`, the GI50 was 1.25 µM in test [1]; 1.66 µM in test [2]; 1.79 µM in test [3]; 0.261 µM in test [4]; 0.351 µM in test [5]; 1.66 µM in [6]. Besides, the GI50 was 0.136 µM in test [7], 1.7 µM in test [8], 0.356 µM in [9] and 1.22 µM in test [10]. For the same compound, the TGI in test [1] amounted to 3.82 µM; in test [2], 3.15 µM; in [3], 3.39 µM; in [4], 0.645 µM; in test [5], 1.23 µM; in test [6], 3.12 µM. Further, the TGI is 0.646 µM in [7], 4.2 µM in test [8], 7.67 µM in test [9] and 2.65 µM in test [10].

With `COc1cc2c3c(n(C)c(=O)c2cc1OC)-c1cc2c(cc1/C3=C\CCCCN)OCO2`, the GI50 in test [1] was 3.54 µM; in [2], 9.53 µM; in test [3] it was 28.1 µM; in [4] it was 1.95 µM; in test [5], 5.23 µM; in test [6], 13.2 µM. The GI50 in test [7] was 4.44 µM; in test [8], 5.55 µM; in [9], 6.22 µM; in [10], 9.66 µM. In addition, the TGI is 7.12 µM in test [1]; 22.6 µM in [2]; greater than 100 µM in [3]; 7.28 µM in [4]; 19.6 µM in test [5]; 27.3 µM in [6]. The TGI in test [7] was 24.7 µM; in [8], 19.6 µM; in test [9] it was greater than 100 µM; in [10], 26.3 µM.

Turning to `O=[N+]([O-])c1ccc(N/N=C\c2cc(Cl)ccc2O)nc1`, the GI50 in test [1] is 1.55 µM; in test [2] it was 17 µM; in test [3] it was 3.65 µM; in [4] it was 1.06 µM; in [5], 2.18 µM; in [6], 1.81 µM. For the same compound, the GI50 in [7] is 0.987 µM; in [8], 1.19 µM; in [9], 2.09 µM; in test [10], 0.696 µM. The TGI in [1] is 21.3 µM; in test [2] it was greater than 100 µM; in test [3], greater than 100 µM; in [4], greater than 100 µM; in test [5], 11.2 µM; in test [6] it was 8.25 µM. Besides, the TGI in test [7] was greater than 100 µM; in test [8], 7.27 µM; in test [9], greater than 100 µM; in test [10], 39.4 µM.

Take `C[C@H]1[C@H](OC(=O)CCC(=O)O)O[C@@H]2O[C@]3(C)CC[C@H]4[C@H](C)CC[C@@H]1[C@@]24OO3`: the GI50 in test [1] is 2.34 µM; in test [2], 5.93 µM; in test [3] it was 4.27 µM; in [4] it was 0.168 µM; in test [5], 1.12 µM; in test [6] it was 0.315 µM. The GI50 in test [7] was 0.0948 µM; in test [8], 0.777 µM; in test [9], 0.443 µM; in [10], 0.921 µM. Further, the TGI was 17.6 µM in test [1]; 33.8 µM in test [2]; greater than 100 µM in test [3]; 12 µM in test [4]; 25.8 µM in [5]; 11.3 µM in [6]. For the same compound, the TGI in [7] is 13 µM; in test [8], 14.8 µM; in [9], 10 µM; in test [10] it was 14.4 µM.

Values taken from PubChem BioAssay (NCI).
